{"source": "patent US20260262643A1", "about": "“HERBICIDAL BENZOXAZINES” (FMC CORPORATION, priority 2022, published 2026)", "key": {"barnyardgrass [1]": {"tested_on": "barnyardgrass", "assay": "Test B flooded paddy test", "type": "in vivo, Echinochloa crus-galli", "conditions": "250 g ai/ha, Flood, 13 days, 0 to 100 scale (0 no effect, 100 complete control)", "procedure,_shortened": "(§1)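 Application into standing water (3 cm above soil) at the two-leaf stage; flood depth held constant. Evaluation: day 13, visual comparison with controls, 0 = no injury, 100 = complete control.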"}, "corn [2]": {"tested_on": "corn", "assay": "Test A preemergence", "type": "in vivo, Zea mays", "conditions": "0 to 100 scale", "procedure,_shortened": "(§2)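 Plants were grown in loam and sand and treated preemergence or postemergence (one- to two-leaf stage, 2–10 cm) with compound in solvent plus surfactant. Response was scored against untreated controls after 10 greenhouse days, where 0 means no effect and 100 complete control.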"}, "soybean [3]": {"tested_on": "soybean", "assay": "Test A preemergence", "type": "in vivo, Glycine max", "conditions": "0 to 100 scale", "procedure,_shortened": "as §2"}, "blackgrass [4]": {"tested_on": "blackgrass", "assay": "Test A postemergence", "type": "in vivo, Alopecurus myosuroides", "conditions": "postemergence, 10 days", "procedure,_shortened": "as §2"}, "foxtail, giant [5]": {"tested_on": "foxtail, giant", "assay": "Test A postemergence", "type": "in vivo, Setaria faberi", "conditions": "postemergence, 10 days", "procedure,_shortened": "as §2"}, "ryegrass, Italian [6]": {"tested_on": "ryegrass, Italian", "assay": "Test A preemergence", "type": "in vivo, Lolium multiflorum", "conditions": "0 to 100 scale", "procedure,_shortened": "as §2"}, "wheat [7]": {"tested_on": "wheat", "assay": "Test A preemergence", "type": "in vivo, Triticum aestivum", "conditions": "0 to 100 scale", "procedure,_shortened": "as §2"}, "pigweed, palmer [8]": {"tested_on": "pigweed, palmer", "assay": "Test A postemergence", "type": "in vivo, Amaranthus palmeri", "conditions": "postemergence, 10 days", "procedure,_shortened": "as §2"}, "pigweed, palmer [9]": {"tested_on": "pigweed, palmer", "assay": "Test A preemergence", "type": "in vivo, Amaranthus palmeri", "conditions": "0 to 100 scale", "procedure,_shortened": "as §2"}, "horseweed": {"tested_on": "horseweed", "assay": "Test A postemergence", "type": "in vivo, Erigeron canadensis", "conditions": "postemergence, 10 days", "procedure,_shortened": "as §2"}, "kochia [10]": {"tested_on": "kochia", "assay": "Test A postemergence", "type": "in vivo, Bassia scoparia", "conditions": "postemergence, 10 days", "procedure,_shortened": "as §2"}, "corn [11]": {"tested_on": "corn", "assay": "Test A postemergence", "type": "in vivo, Zea mays", "conditions": "postemergence, 10 days", "procedure,_shortened": "as §2"}, "rice": {"tested_on": "rice", "assay": "Test B flooded paddy test", "type": "in vivo, Oryza sativa", "conditions": "250 g ai/ha, Flood, 13 days, 0 to 100 scale (0 no effect, 100 complete control)", "procedure,_shortened": "as §1"}, "wheat [12]": {"tested_on": "wheat", "assay": "Test A postemergence", "type": "in vivo, Triticum aestivum", "conditions": "postemergence, 10 days", "procedure,_shortened": "as §2"}, "galium": {"tested_on": "galium", "assay": "Test A postemergence", "type": "in vivo, Galium aparine", "conditions": "postemergence, 10 days", "procedure,_shortened": "as §2"}, "ryegrass, Italian [13]": {"tested_on": "ryegrass, Italian", "assay": "Test A postemergence", "type": "in vivo, Lolium multiflorum", "conditions": "postemergence, 10 days", "procedure,_shortened": "as §2"}, "kochia [14]": {"tested_on": "kochia", "assay": "Test A preemergence", "type": "in vivo, Bassia scoparia", "conditions": "0 to 100 scale", "procedure,_shortened": "as §2"}, "barnyardgrass [15]": {"tested_on": "barnyardgrass", "assay": "Test A preemergence", "type": "in vivo, Echinochloa crusgalli", "conditions": "visual injury after 10 days, 0 to 100 scale, 0 is no effect, 100 is complete control", "procedure,_shortened": "as §2"}, "blackgrass [16]": {"tested_on": "blackgrass", "assay": "Test A preemergence", "type": "in vivo, Alopecurus myosuroides", "conditions": "0 to 100 scale", "procedure,_shortened": "as §2"}, "foxtail, giant [17]": {"tested_on": "foxtail, giant", "assay": "Test A preemergence", "type": "in vivo, Setaria faberi", "conditions": "0 to 100 scale", "procedure,_shortened": "as §2"}, "ducksalad": {"tested_on": "ducksalad", "assay": "Test B flooded paddy test", "type": "in vivo, Heteranthera limosa", "conditions": "250 g ai/ha, Flood, 13 days, 0 to 100 scale (0 no effect, 100 complete control)", "procedure,_shortened": "as §1"}, "oat, wild [18]": {"tested_on": "oat, wild", "assay": "Test A postemergence", "type": "in vivo, Avena fatua", "conditions": "postemergence, 10 days", "procedure,_shortened": "as §2"}, "soybean [19]": {"tested_on": "soybean", "assay": "Test A postemergence", "type": "in vivo, Glycine max", "conditions": "postemergence, 10 days", "procedure,_shortened": "as §2"}, "ragweed [20]": {"tested_on": "ragweed", "assay": "Test A preemergence", "type": "in vivo, Ambrosia artemisiifolia", "conditions": "0 to 100 scale", "procedure,_shortened": "as §2"}, "barnyardgrass [21]": {"tested_on": "barnyardgrass", "assay": "Test A postemergence", "type": "in vivo, Echinochloa crusgalli", "conditions": "postemergence, 10 days", "procedure,_shortened": "as §2"}, "ragweed [22]": {"tested_on": "ragweed", "assay": "Test A postemergence", "type": "in vivo, Ambrosia artemisiifolia", "conditions": "postemergence, 10 days", "procedure,_shortened": "as §2"}, "oat, wild [23]": {"tested_on": "oat, wild", "assay": "Test A preemergence", "type": "in vivo, Avena fatua", "conditions": "0 to 100 scale", "procedure,_shortened": "as §2"}, "sedge, umbrella": {"tested_on": "sedge, umbrella", "assay": "Test B flooded paddy test", "type": "in vivo, Cyperus difformis", "conditions": "250 g ai/ha, Flood, 13 days, 0 to 100 scale (0 no effect, 100 complete control)", "procedure,_shortened": "as §1"}, "[24]": {"conditions": "500 g ai/ha, visual injury after 10 days, 0 is no effect, 100 is complete control"}, "[25]": {"conditions": "125 g ai/ha, 0 to 100 scale, 0 no effect, 100 complete control"}, "[26]": {"conditions": "500 g ai/ha, visual injury, 0 to 100 scale (0 no effect, 100 complete control)"}}, "data": [{"compound": "CC(C)c1ncn(-c2ccc(OCC(F)(F)F)c(C(=O)N3C[C@H](C)Oc4c(Cl)cccc43)c2)n1", "note": "[Compound 141]", "values": [{"measurement": "Plant response rating, Barnyardgrass", "setting": "barnyardgrass [1]", "result": 25}, {"measurement": "Plant response rating, Corn", "setting": "corn [2]; 125 g ai/ha", "result": 10}, {"measurement": "Plant response rating, Corn", "setting": "corn [2]; [24]", "result": 10}, {"measurement": "Plant response rating, Soybean", "setting": "soybean [3]; 125 g ai/ha", "result": 80}, {"measurement": "Plant response rating, Soybean", "setting": "soybean [3]; [24]", "result": 80}, {"measurement": "Blackgrass plant response rating", "setting": "blackgrass [4]; [25]", "result": 30}, {"measurement": "Plant response rating, Blackgrass", "setting": "blackgrass [4]; [26]", "result": 80}, {"measurement": "Foxtail, Giant plant response rating", "setting": "foxtail, giant [5]; [25]", "result": 60}, {"measurement": "Plant response rating, Foxtail, Giant", "setting": "foxtail, giant [5]; [26]", "result": 100}, {"measurement": "Plant response rating, Ryegrass, Italian", "setting": "ryegrass, Italian [6]; 125 g ai/ha", "result": 90}, {"measurement": "Plant response rating, Ryegrass, Italian", "setting": "ryegrass, Italian [6]; [24]", "result": 100}, {"measurement": "Plant response rating, Wheat", "setting": "wheat [7]; 125 g ai/ha", "result": 20}, {"measurement": "Plant response rating, Wheat", "setting": "wheat [7]; [24]", "result": 30}, {"measurement": "Pigweed, Palmer plant response rating", "setting": "pigweed, palmer [8]; [25]", "result": 70}, {"measurement": "Plant response rating, Pigweed, Palmer", "setting": "pigweed, palmer [8]; [26]", "result": 100}, {"measurement": "Plant response rating, Pigweed, Palmer", "setting": "pigweed, palmer [9]; 125 g ai/ha", "result": 100}, {"measurement": "Plant response rating, Pigweed, Palmer", "setting": "pigweed, palmer [9]; [24]", "result": 100}, {"measurement": "Horseweed plant response rating", "setting": "horseweed; [25]", "result": 0}, {"measurement": "Plant response rating, Horseweed", "setting": "horseweed; [26]", "result": 0}, {"measurement": "Kochia plant response rating", "setting": "kochia [10]; [25]", "result": 80}, {"measurement": "Plant response rating, Kochia", "setting": "kochia [10]; [26]", "result": 90}, {"measurement": "Corn plant response rating", "setting": "corn [11]; [25]", "result": 90}, {"measurement": "Plant response rating, Corn", "setting": "corn [11]; [26]", "result": 90}, {"measurement": "Plant response rating, Rice", "setting": "rice", "result": 10}, {"measurement": "Wheat plant response rating", "setting": "wheat [12]; [25]", "result": 10}, {"measurement": "Plant response rating, Wheat", "setting": "wheat [12]; [26]", "result": 20}, {"measurement": "Galium plant response rating", "setting": "galium; [25]", "result": 80}, {"measurement": "Plant response rating, Galium", "setting": "galium; [26]", "result": 100}, {"measurement": "Ryegrass, Italian plant response rating", "setting": "ryegrass, Italian [13]; [25]", "result": 30}, {"measurement": "Plant response rating, Ryegrass, Italian", "setting": "ryegrass, Italian [13]; [26]", "result": 90}, {"measurement": "Plant response rating, Kochia", "setting": "kochia [14]; 125 g ai/ha", "result": 0}, {"measurement": "Plant response rating, Kochia", "setting": "kochia [14]; [24]", "result": 50}, {"measurement": "Plant response rating, Barnyardgrass", "setting": "barnyardgrass [15]; 125 g ai/ha", "result": 70}, {"measurement": "Plant response rating, Barnyardgrass", "setting": "barnyardgrass [15]; 500 g ai/ha", "result": 90}, {"measurement": "Plant response rating, Blackgrass", "setting": "blackgrass [16]; 125 g ai/ha", "result": 20}, {"measurement": "Plant response rating, Blackgrass", "setting": "blackgrass [16]; [24]", "result": 70}, {"measurement": "Plant response rating, Foxtail, Giant", "setting": "foxtail, giant [17]; 125 g ai/ha", "result": 90}, {"measurement": "Plant response rating, Foxtail, Giant", "setting": "foxtail, giant [17]; [24]", "result": 100}, {"measurement": "Plant response rating, Ducksalad", "setting": "ducksalad", "result": 30}, {"measurement": "Oat, Wild plant response rating", "setting": "oat, wild [18]; [25]", "result": 10}, {"measurement": "Plant response rating, Oat, Wild", "setting": "oat, wild [18]; [26]", "result": 20}, {"measurement": "Soybean plant response rating", "setting": "soybean [19]; [25]", "result": 100}, {"measurement": "Plant response rating, Soybean", "setting": "soybean [19]; [26]", "result": 100}, {"measurement": "Plant response rating, Ragweed", "setting": "ragweed [20]; 125 g ai/ha", "result": 0}, {"measurement": "Plant response rating, Ragweed", "setting": "ragweed [20]; [24]", "result": 50}, {"measurement": "Barnyardgrass plant response rating", "setting": "barnyardgrass [21]; [25]", "result": 30}, {"measurement": "Plant response rating, Barnyardgrass", "setting": "barnyardgrass [21]; [26]", "result": 70}, {"measurement": "Ragweed plant response rating", "setting": "ragweed [22]; [25]", "result": 30}, {"measurement": "Plant response rating, Ragweed", "setting": "ragweed [22]; [26]", "result": 60}, {"measurement": "Plant response rating, Oat, Wild", "setting": "oat, wild [23]; 125 g ai/ha", "result": 60}, {"measurement": "Plant response rating, Oat, Wild", "setting": "oat, wild [23]; [24]", "result": 80}, {"measurement": "Plant response rating, Sedge, Umbrella", "setting": "sedge, umbrella", "result": 95}]}]}
